In data set [1] the test system is SK-MEL-28. The experiment in a line: Induction of cell cycle arrest in human SK-MEL-28 cells assessed as accumulation of cells at G2 phase at 1 uM measured after 48 hrs by PI staining based flow cytometry (reference value: 9.17%). It counts as functional. On the technique in general: Flow cytometry measures light scatter and fluorescence of single cells or particles in a stream.

In data set [2] the test system is SK-MEL-28. The experiment in a line: Induction of cell cycle arrest in human SK-MEL-28 cells assessed as accumulation of cells at G0-G1 phase at 5 uM measured after 48 hrs by PI staining based flow cytometry (reference value: 74.32%). In kind it is functional.
The subject of data set [3] is SK-MEL-28. Kind of data set: Induction of apoptosis in human SK-MEL-28 cells assessed as early apoptotic cells at 5 uM incubated for 24 hrs by Annexin V-FITC/PI dual staining based flow cytometry analysis (reference value: 0.0%). It counts as functional.
For data set [4], the system named is SK-MEL-28. The experiment in a line: Induction of apoptosis in human SK-MEL-28 cells assessed as live cells at 2.5 uM incubated for 24 hrs by Annexin V-FITC/PI dual staining based flow cytometry analysis (reference value: 99.9%). It counts as functional.
Data set [5] has as its system SK-MEL-28. The experiment in a line: Induction of morphological changes in human SK-MEL-28 cells assessed as bright fragmented nuclei at 1 to 5 uM measured after 48 hrs DAPI staining based analysis. As to conditions: dose 1-5 µM. It counts as functional, cell-based.
For data set [6], the system named is SK-MEL-28. Kind of data set: Induction of morphological changes in human SK-MEL-28 cells assessed as nuclear shrinkage at 1 to 5 uM measured after 48 hrs DAPI staining based analysis. It counts as functional, cell-based. As to conditions: dose 1-5 µM.
The test system of data set [7] is SK-MEL-28. Kind of data set: Induction of apoptosis in human SK-MEL-28 cells assessed as late apoptotic cells at 5 uM incubated for 24 hrs by Annexin V-FITC/PI dual staining based flow cytometry analysis (reference value: 0.1%). It counts as functional.
Data set [8] relates to SK-MEL-28. The experiment in a line: Induction of morphological changes in human SK-MEL-28 cells assessed as bright pyknotic nuclei at 1 to 5 uM measured after 48 hrs DAPI staining based analysis. The conditions noted are these: dose 1-5 µM. It counts as functional, cell-based.
For data set [9], the system named is SK-MEL-28. Kind of data set: Induction of cell cycle arrest in human SK-MEL-28 cells assessed as accumulation of cells at S phase at 1 uM measured after 48 hrs by PI staining based flow cytometry (reference value: 16.5%). It counts as functional.
Data set [10] has as its system SK-MEL-28. The experiment in a line: Induction of apoptosis in human SK-MEL-28 cells assessed as necrotic cells at 1 uM incubated for 24 hrs by Annexin V-FITC/PI staining based flow cytometry analysis (reference value: 0.1%). It counts as functional.
The test system of data set [11] is SK-MEL-28. The experiment in a line: Induction of apoptosis in human SK-MEL-28 cells assessed as live cells at 5 uM incubated for 24 hrs by Annexin V-FITC/PI dual staining based flow cytometry analysis (reference value: 99.9%). In kind it is functional.
The subject of data set [12] is SK-MEL-28. Kind of data set: Induction of mitochondrial membrane potential changes in human SK-MEL-28 cells assessed as J-aggregate level by measuring red fluorescence intensity at 1 uM incubated for 48 hrs by JC-1 staining based analysis (reference value: 98.9%). It counts as functional.
Data set [13] deals with SK-MEL-28. Kind of data set: Induction of apoptosis in human SK-MEL-28 cells assessed as necrotic cells at 5 uM incubated for 24 hrs by Annexin V-FITC/PI staining based flow cytometry analysis (reference value: 0.1%). It counts as functional.
Data set [14] has as its system SK-MEL-28. Kind of data set: Induction of apoptosis in human SK-MEL-28 cells assessed as early apoptotic cells at 2.5 uM incubated for 24 hrs by Annexin V-FITC/PI dual staining based flow cytometry analysis (reference value: 0.0%). In kind it is functional.
The nature of data set [15]: Selectivity index, ratio of IC50 for NRK-52E cells to ratio of IC50 for human A549 cells. In kind it is toxicity. The conditions noted are these: rat (NRK-52E), NRK-52E cells versus A549 cells, read-out: Selectivity Index.
Data set [16] deals with SK-MEL-28. The experiment in a line: Induction of mitochondrial membrane potential changes in human SK-MEL-28 cells assessed as J-aggregate level by measuring red fluorescence intensity at 2.5 uM incubated for 48 hrs by JC-1 staining based analysis (reference value: 98.9%). In kind it is functional.
The test system of data set [17] is SK-MEL-28. The experiment in a line: Induction of mitochondrial membrane potential depolarization in human SK-MEL-28 cells assessed as J-monomer level by measuring green fluorescence intensity at 2.5 uM incubated for 48 hrs by JC-1 staining based analysis (reference value: 0.8%). In kind it is functional.
The test system of data set [18] is SK-MEL-28. Kind of data set: Induction of apoptosis in human SK-MEL-28 cells assessed as necrotic cells at 2.5 uM incubated for 24 hrs by Annexin V-FITC/PI staining based flow cytometry analysis (reference value: 0.1%). It counts as functional.
For a further data set, the target named is Tubulin (Homo sapiens) (UniProt P68371+Q9H4B7+P0DPH7+P68366+Q13509+Q71U36+P04350+Q3ZCM7+P07437+P68363+Q9BQE3+Q6PEY2+Q13885+Q9BVA1+Q9BUF5). The experiment in a line: Inhibition of tubulin polymerization (unknown origin) at 3 uM incubated for 1 hr relative to control. In kind it is protein-complex assay.
The test system of data set [19] is SK-MEL-28. Kind of data set: Induction of cell cycle arrest in human SK-MEL-28 cells assessed as accumulation of cells at G0-G1 phase at 2.5 uM measured after 48 hrs by PI staining based flow cytometry (reference value: 74.32%). In kind it is functional.
For data set [20], the system named is SK-MEL-28. Kind of data set: Inhibition of cell migration in human SK-MEL-28 cells at 1 to 5 uM incubated for 0 to 48 hrs by wound healing assay. As to conditions: dose 1-5 µM, time 0-48 hrs. In kind it is functional, cell-based.

The structures appear in SMILES notation. Active and inactive are the calls of the source. The rule behind the calls is not given here.

1 compound from ChEMBL document CHEMBL5390218, “Benzimidazole derivatives as tubulin polymerization inhibitors: Design, synthesis and in vitro cytotoxicity studies” (Bioorg Med Chem Lett, 2023) can be followed below.

As a reminder, the inhibition is the drop in the measured response relative to a control, in per cent.

As for `COc1cc(-c2nc3cc(F)ccc3[nH]2)ccc1OCC(=O)N1CCc2ccccc21`, the Activity is on record as 15.96% in the data set with SK-MEL-28 [1]; 49.28% in the data set on SK-MEL-28 [2]; 1.3% in the data set with SK-MEL-28 [3]; 52.5% in the data set with SK-MEL-28 [4]; 35.1% with SK-MEL-28 [7]; 22.3% in the data set on SK-MEL-28 [9]. Also, the Activity is given as 0% in the data set with SK-MEL-28 [10]; 50.7% in the data set on SK-MEL-28 [11]; 97.9% in the data set with SK-MEL-28 [12]; 13% with SK-MEL-28 [13]; 26.4% with SK-MEL-28 [14]; 96.7% with SK-MEL-28 [16]. The results for the Activity in the data set on SK-MEL-28 [17], with SK-MEL-28 [18] and with SK-MEL-28 [19] were 3.2%, 1% and 51.45%, respectively. For the same compound, the outcome in the data set on SK-MEL-28 [5], with SK-MEL-28 [6] and in the data set on SK-MEL-28 [8] was Active. The selectivity ratio in data set [15] was 14. This compound displayed an inhibition on Tubulin (Homo sapiens) of 47.4%. Besides, in the data set on SK-MEL-28 [20], the inhibition entry was “Active”.
